As usually defined, the IC50 is the concentration needed to halve the response being measured. The term IC90 denotes the concentration at which the effect reaches the 90% level.

Data on nine compounds can be found in ChEMBL document CHEMBL5223186, “Agrochemical Lessons for Infectious Disease Research: New Resistance Breaking Antifungal Hits against Candida auris” (ACS Med Chem Lett, 2023).

Values after ≈ are worked out from the molar mass of the structure shown.

For data set [1], the system named is [Candida] auris. Description: Antifungal activity against Candida auris ATCC 6258 assessed as lowest compound concentration required to inhibit 50 % growth. It is filed as functional, Candidozyma auris.
Data set [2] deals with [Candida] auris. Description: Antifungal activity against Candida auris CDC0385 assessed as growth inhibition. It is filed as functional, organism-based. Particulars: Candidozyma auris.
Data set [3] has as its system [Candida] auris. Description: Antifungal activity against Candida auris CDC0381 assessed as lowest compound concentration required to inhibit 50 % growth. It is filed as functional, Candidozyma auris.
Data set [4] deals with [Candida] auris. Description: Antifungal activity against Candida auris ATCC 6258 assessed as growth inhibition. It is filed as functional, organism-based. Particulars: Candidozyma auris.
Data set [5] concerns [Candida] auris. Description: Antifungal activity against Candida auris CDC0381 assessed as growth inhibition. It is filed as functional, organism-based. The following applies: Candidozyma auris.
The test system of data set [6] is [Candida] auris. The data set is described as follows: Antifungal activity against Candida auris CDC0381 assessed as lowest compound concentration required to inhibit 90 % growth. It is filed as functional, Candidozyma auris.
For data set [7], the system named is [Candida] auris. Description: Antifungal activity against Candida auris CDC0385 assessed as lowest compound concentration required to inhibit 90 % growth. It is filed as functional, Candidozyma auris.
Data set [8] relates to [Candida] auris. The data set is described as follows: Antifungal activity against Candida auris ATCC 6258 assessed as lowest compound concentration required to inhibit 90 % growth. It is filed as functional, Candidozyma auris.
Data set [9] relates to [Candida] auris. Description: Antifungal activity against Candida auris CDC0385 assessed as lowest compound concentration required to inhibit 50 % growth. It is filed as functional, Candidozyma auris.
Data set [10] can be described thus: Cytotoxicity against human HepG2 cells assessed as growth inhibition by XTT assay. It is filed as toxicity, cell-based. For orientation: Tetrazolium assays rely on reduction of a dye to a coloured formazan, in cell work by metabolically active cells.
A short description of data set [11]: Selectivity index, ratio of IC50 for cytotoxicity against human HepG2 cells to IC50 for antifungal activity against Candida auris CDC0385. It is filed as toxicity, cell-based. The following applies: read-out: Ratio IC50.

For the compound `C[C@@H](c1ncncc1F)[C@](O)(Cn1cncn1)c1ccc(F)cc1F` [VORICONAZOLE], the INH in data set [Candida] auris [1] was 0.25 µg/mL; in [Candida] auris [3], 0.016 µg/mL; in data set [Candida] auris [6], 4 µg/mL; in data set [Candida] auris [7] it was over 4 µg/mL; in [Candida] auris [8] it was 1 µg/mL; in [Candida] auris [9] it was 4 µg/mL. Moreover, the IC50 in [Candida] auris [2] was 2.94 µg/mL (≈ 8.42 µM); in data set [Candida] auris [4], 0.2 µg/mL (≈ 0.573 µM); in [Candida] auris [5], 0.01 µg/mL (≈ 0.0286 µM). In addition, the IC90 in data set [Candida] auris [2] was over 4 µg/mL; in [Candida] auris [4], 0.76 µg/mL (≈ 2.18 µM); in data set [Candida] auris [5], 0.55 µg/mL (≈ 1.57 µM).
For `Cc1cc(Nc2ccccc2C)n(-c2nc(=O)cc(C)[nH]2)n1`, the INH in [Candida] auris [1] amounted to 2 µg/mL; in data set [Candida] auris [3], 1 µg/mL; in [Candida] auris [6], 4 µg/mL; in data set [Candida] auris [7], 8 µg/mL; in [Candida] auris [8], 4 µg/mL; in data set [Candida] auris [9], 2 µg/mL. The IC50 in data set [Candida] auris [2] is 1.45 µg/mL (≈ 4.91 µM); in [Candida] auris [4] it was 1.42 µg/mL (≈ 4.81 µM); in data set [10], over 100 µM; in [Candida] auris [5] it was 0.85 µg/mL (≈ 2.88 µM). The IC90 was determined as 6.05 µg/mL (≈ 20.5 µM) in data set [Candida] auris [2], 2.38 µg/mL (≈ 8.06 µM) in data set [Candida] auris [4] and 1.93 µg/mL (≈ 6.53 µM) in data set [Candida] auris [5]. Further, the selectivity ratio in data set [11] is over 69.
Turning to `NC1CCCc2ccc(C3=NSC(c4cc(Cl)c(F)c(Cl)c4)(C(F)(F)F)C3)cc21` (stereo not given), the INH is 4 µg/mL in [Candida] auris [1]; 2 µg/mL in data set [Candida] auris [3]; 2 µg/mL in data set [Candida] auris [6]; 4 µg/mL in data set [Candida] auris [7]; 4 µg/mL in data set [Candida] auris [8]; 4 µg/mL in data set [Candida] auris [9]. The 50% inhibitory concentration (IC50) in data set [Candida] auris [2] amounted to 2.09 µg/mL (≈ 4.51 µM); in [Candida] auris [4], 2.11 µg/mL (≈ 4.55 µM); in [10], 13.2 µM; in data set [Candida] auris [5], 1.43 µg/mL (≈ 3.09 µM). Moreover, the IC90 came out at 2.3 µg/mL (≈ 4.96 µM) in [Candida] auris [2], 2.62 µg/mL (≈ 5.65 µM) in data set [Candida] auris [4] and 1.71 µg/mL (≈ 3.69 µM) in data set [Candida] auris [5]. In addition, in data set [11], the selectivity ratio is 6.29.
Turning to `CCCCCn1nc(-c2ccc(Cl)cc2)cnc1=O`, the INH in data set [Candida] auris [1] is 1 µg/mL; in data set [Candida] auris [3], 1 µg/mL; in [Candida] auris [6], 4 µg/mL; in data set [Candida] auris [7], 4 µg/mL; in [Candida] auris [8], 2 µg/mL; in data set [Candida] auris [9] it was 2 µg/mL. Also, the half-inhibitory concentration (IC50) in data set [Candida] auris [2] is 1.8 µg/mL (≈ 6.48 µM); in [Candida] auris [4] it was 0.76 µg/mL (≈ 2.74 µM); in data set [10] it was 2.07 µM; in data set [Candida] auris [5] it was 0.72 µg/mL (≈ 2.59 µM). Moreover, the IC90 in [Candida] auris [2] is 3.64 µg/mL (≈ 13.1 µM); in data set [Candida] auris [4], 1.05 µg/mL (≈ 3.78 µM); in data set [Candida] auris [5], 1.59 µg/mL (≈ 5.72 µM). Besides, in data set [11], the selectivity ratio worked out at 1.5.
Turning to `COCc1ncnc(NC(C)CC#Cc2ccc(Oc3ccc(C(F)(F)F)cn3)cc2)c1OC` (stereo not given), the INH in data set [Candida] auris [1] was over 64 µg/mL; in [Candida] auris [3] it was under 0.125 µg/mL; in data set [Candida] auris [6] it was 1 µg/mL; in data set [Candida] auris [7] it was 8 µg/mL; in data set [Candida] auris [8] it was over 64 µg/mL; in [Candida] auris [9], 0.5 µg/mL. Further, the half-maximal inhibitory concentration (IC50) is 0.45 µg/mL (≈ 0.952 µM) in data set [Candida] auris [2] and over 100 µM in [10]. For the same compound, the IC90 in data set [Candida] auris [2] amounted to 4.61 µg/mL (≈ 9.76 µM). Also, the selectivity ratio in data set [11] is over 222.
Turning to `Clc1cc2c(c3ncccc13)OCN(CCc1ccccc1)C2`, the INH in data set [Candida] auris [1] is 2 µg/mL; in [Candida] auris [3], 4 µg/mL; in data set [Candida] auris [6] it was 4 µg/mL; in [Candida] auris [7], 4 µg/mL; in [Candida] auris [8], 4 µg/mL; in data set [Candida] auris [9], 4 µg/mL. Moreover, the half-inhibitory concentration (IC50) amounted to 2.14 µg/mL (≈ 6.59 µM) in data set [Candida] auris [2], 1.98 µg/mL (≈ 6.1 µM) in [Candida] auris [4], 22.7 µM in data set [10] and 2 µg/mL (≈ 6.16 µM) in data set [Candida] auris [5]. The figures for the IC90 in data set [Candida] auris [2], in [Candida] auris [4] and in data set [Candida] auris [5] were 3.88 µg/mL (≈ 11.9 µM), 2.2 µg/mL (≈ 6.77 µM) and 2.13 µg/mL (≈ 6.56 µM), respectively. In addition, in data set [11], the selectivity ratio worked out at 10.6.
Regarding `Fc1ccc2[nH]cc(-c3ccsc3Br)c2c1`, the INH in data set [Candida] auris [1] is 64 µg/mL; in [Candida] auris [3], 16 µg/mL; in data set [Candida] auris [6], 16 µg/mL; in [Candida] auris [7], over 64 µg/mL; in data set [Candida] auris [8], over 64 µg/mL; in data set [Candida] auris [9], 32 µg/mL. The IC50 in data set [Candida] auris [2] was 29.3 µg/mL (≈ 98.9 µM); in data set [Candida] auris [4], 32.2 µg/mL (≈ 109 µM); in [10], over 100 µM; in [Candida] auris [5], 9.85 µg/mL (≈ 33.3 µM). Also, the concentration for an effect of 90% (IC90) in data set [Candida] auris [2] is over 64 µg/mL; in [Candida] auris [4] it was over 64 µg/mL; in data set [Candida] auris [5] it was 15.7 µg/mL (≈ 53 µM). Further, the selectivity ratio in [11] is over 3.41.
For the compound `C1CCC(C(CC2CCCCN2)C2CCCCC2)CC1` (stereo not given) [PERHEXILINE], the IC50 in data set [10] stood at 11.3 µM.
Regarding `C[C@@H]1[C@H](O)[C@@H](C)/C=C/C=C/C=C/C=C/C=C/C=C/C=C/[C@H](O[C@@H]2O[C@H](C)[C@@H](O)[C@H](N)[C@@H]2O)C[C@@H]2O[C@](O)(C[C@@H](O)C[C@@H](O)[C@H](O)CC[C@@H](O)C[C@@H](O)CC(=O)O[C@H]1C)C[C@H](O)[C@H]2C(=O)O` [AMPHOTERICIN B], the INH came to 0.5 µg/mL in [Candida] auris [1]; 0.25 µg/mL in data set [Candida] auris [3]; 0.5 µg/mL in data set [Candida] auris [6]; 1 µg/mL in [Candida] auris [7]; 1 µg/mL in data set [Candida] auris [8]; 1 µg/mL in data set [Candida] auris [9]. The IC50 came to 0.54 µg/mL (≈ 0.584 µM) in data set [Candida] auris [2], 0.49 µg/mL (≈ 0.53 µM) in data set [Candida] auris [4] and 0.2 µg/mL (≈ 0.216 µM) in data set [Candida] auris [5]. Moreover, the concentration for an effect of 90% (IC90) was determined as 0.83 µg/mL (≈ 0.898 µM) in data set [Candida] auris [2], 0.54 µg/mL (≈ 0.584 µM) in [Candida] auris [4] and 0.39 µg/mL (≈ 0.422 µM) in [Candida] auris [5].
